Measured values published in patent US20240238237A1, “CONJUGATED LINOLEIC ACID SUPPLEMENTATION FOR DISEASE TREATMENT” (VIRGINIA TECH INTELLECTUAL PROPERTIES, INC., priority 2021, published 2024).
“Also recorded” adds a separate entry of the source.

Tests used:
[1] = test system: WT, PWS (Snord116m+/p−) and PWS-KO (Snord116m−/p−) mice; test: Elevated plus maze anxiety-like behavior, Example 1; format: in vivo, mouse; conditions: pre- and post-intervention; genotype, treatment or interaction
Experimental: A plus-shaped elevated plus apparatus with two open and two closed arms was constructed using measurements obtained from a commercial apparatus. This elevated plus maze was used for anxiety-like behavior analysis. The maze was cleaned with 70% ethanol before and after the procedure for each mouse and allowed to fully dry between mice. Mice were placed in the center/cross-arms and allowed to freely explore the maze for 5 min while the duration and frequency of entries into open and closed arms was recorded. Animals that enter the open arms more frequently are considered to display less overall anxiety-like behavior than those that stay in the closed arms.

[2] = test system: WT, PWS (Snord116m+/p−) and PWS-KO (Snord116m−/p−) mice; test: Fasting glucose and glucose tolerance test; format: in vivo, mouse; conditions: all genotypes, after 12 weeks diet, vs control diet
Experimental: Mice were food-deprived for 12-15 h during the dark cycle in a cage devoid of bedding material. For the fasting measurement, the tail was snipped (1-2 mm), and blood was collected directly on Care Touch glucose test strips and directly measured using a Care Touch blood glucose monitor (Future Diagnostics USA, Brooklyn, NY, USA). Glucose (pharmaceutical grade dextrose, 2 g/kg in PBS, sterile) was injected intraperitoneally (IP) and tail blood samples were obtained at 15, 30, 60, 90, and 120 min following the injection. Area under the curve was calculated using the formula (((([fasting glucose×7.5]+[15 min glucose×15)+[30 min glucose×22.5])+[60 min glucose×30])+[90 min glucose×30])+[120 min glucose×15]).

N2KO mice = conditions: 20% fat diet, refs [13-16]; cited from earlier work
[3] = test system: N2KO (Nhlh2 deletion) and WT mice; test: Body weight, body fat and lean mass in N2KO mice, Example 3; format: in vivo, mouse
Experimental: In males, incidence of HH is as high as one in 4000, with incidence in females being about 2-5 times lower. It was previously shown that mice containing a mutation of Nhlh2, a neuronal basic-helix-loop-helix transcription factor show a failure of pubertal onset, adult-onset obesity and hypogonadism. These mice are termed N2KO mice. […] In this Example, N2KO and WT mice were treated with about 0.5% CLA for 12 weeks.

[4] = test system: WT, PWS (Snord116m+/p−) and PWS-KO (Snord116m−/p−) mice; test: In vivo plantarflexor torque-frequency and fatigue assays; parameters: species or system mouse
Experimental: The procedures for in vivo muscle testing were recently published. Briefly, at the end of the study, following both running wheel and metabolism measurements, body weight was determined, and mice were anesthetized with isoflurane (VetOne Fluriso, Boise, ID, USA) and placed on the temperature-controlled platform (40° C.) of the contractile apparatus (ASI), as described. The right hindlimb was shaved, hair remover applied (Nair Hair Remover Lotion, Ewing, NJ, USA) for 30 s, cleaned with 2-inch×2-inch gauze and tap water, and swabbed with povidone-iodine (Betadine Solution Swabsticks, Stamford, CT, USA). The knee was clamped so the tibia was 90° to the femur. The foot at 90° to the tibia was secured with clear Transpore surgical tape ([…], St. Paul, MN, USA) to the foot pedal of the Aurora Scientific (ASI: Aurora, ON, Canada) dual-mode servomotor. The mouse tail was taped (M3, St. Paul, MN, USA) loosely to the platform to keep it clear of the foot pedal. In vivo plantarflexor torque-frequency and fatigue assays were determined as described in Hamm et al.. Dynamic Muscle Control (DMC) software controlled the timing and frequency of the stimulations and collection of torque. Peak torque for each muscle contraction was determined using ASI Dynamic Muscle Analysis (DMA) software. Due to the body mass and fat mass reduction of the CLA groups in this study, torque was normalized separately by body mass (g) and the final measure of lean body mass (g).
In vivo plantar-flexor torque-frequency and fatigue curves were analyzed using Graph-Pad Prism 9.2.0. A two-way ANOVA was performed with multiple comparisons across groups. For torque-frequency figures, a nonlinear model was fit using the sigmoidal curve with variable slope.

[5] = test system: WT, PWS (Snord116m+/p−) and PWS-KO (Snord116m−/p−) mice; test: Rotarod analysis, Example 1; format: in vivo, mouse; conditions: end of study
Experimental: For rotarod analysis, animals were tested using a Columbus Instruments (Columbus, OH, USA) Economex Rota-Rod apparatus. All mice in the study were given four trials each day during the day (between 11 a.m. and 1 p.m.) for four consecutive days from 0 rpm to a maximum speed of 20 rpm, with an acceleration slope of 2.65%. Animals were tested for a maximum of 5 min of running per test, or until the animals fell off the device. The Economex Rota-Rod apparatus is equipped with a pressure-sensitive landing area so that the time spent on the rotating rod is automatically recorded when the animal falls.
The procedure has been previously described. Animals were given between 10 and 15 min of rest in between trials. Note that there are four days of testing, with each day consisting of four trials. The initial trials on Day 1 use a lane where Applicant placed non-slip bathroom tape to provide a stable environment for the animal to learn the procedure. The non-taped lanes were used for Days 2-4. Days 2-3 serve as acclimation days. Day 4 data were used for analysis.

[6] = test system: liver of WT, PWS and PWS-KO mice; test: Liver histology (H&E); format: in vivo, mouse
Experimental: Tissues were isolated immediately following euthanasia by CO2 asphyxiation and placed into 4% paraformaldehyde, overnight, with rocking at 4° C. The tissues were then rinsed in 70% ethanol and stored in 70% ethanol at 4° C. until processing. The Virginia Tech Veterinary Teaching Hospital at the Virginia-Maryland College of Veterinary Medicine processed the tissues for histology and stained with hematoxylin-eosin stain for microscopy. Representative samples were visualized using a 40× ocular on a Nikon Eclipse 50i micro-scope and captured using an Olympus Q-color3 camera.

conjugated linoleic acid [CLA]
Time in open arms, elevated plus [1]: no differences
Fasting glucose [2]: significantly higher; also recorded: significantly increased fasting glucose
Outcomes of CLA treatment of N2KO mice (N2KO mice): weight loss, decreased body fat, increased metabolism, muscle mitochondrial biogenesis, and increased exercise performance
Lean mass, N2KO study ([3]; 12 weeks CLA): significantly improved
Body fat, N2KO mice ([3]; about 0.5% CLA for 12 weeks): reduced; also recorded: decreased body fat; also recorded: significant reduction
Body weight, N2KO mice ([3]; about 0.5% CLA for 12 weeks): reduced body weight; also recorded: improved body weight; also recorded: significant reduction
Resistance to fatigue ([4]; PWS CLA and PWS-KO CLA vs control diet counterparts): lowered
Plantarflexor torque output, PWS group ([4]; PWS, normalized to lean body mass): lowered torque output
Fatigue ([4]; WT and PWS mice on CLA diet vs most other genotypes and treatments): greater fatigue
Plantarflexor torque output, WT mice ([4]; WT, regardless of normalization method): increased torque output
Muscle function, overall ([4]; any group, vs WT baseline): not detrimental to muscle function
Rotarod ability [5]: not affected
Mice with liver steatosis on CLA diet, PWS and PWS-KO ([6]; PWS and PWS-KO): ~50%
Liver steatosis, PWS-KO mice on CLA diet ([6]; PWS-KO): four of seven
Liver steatosis, PWS mice on CLA diet ([6]; PWS, two of these mild): five of eight
Liver steatosis, WT mice on CLA diet ([6]; WT): all liver sections
Mice with liver steatosis on CLA diet, WT ([6]; WT): 100%
